Test results reported in paper PMC8073907, “Peptide targeting of lysophosphatidylinositol-sensing GPR55 for osteoclastogenesis tuning” (Cell Communication and Signaling : CCS, 2021).

Experiments:
RAW264.7 cells = experiment: RANKL-induced transcription of osteoclastogenesis markers in RAW264.7 cells (real-time PCR); type: cell-based, murine; settings: RANKL 15 ng/mL, 72 h, 1 µM soybean LPI
Experimental: Total RNA was extracted using RNeasy isolation kits, cDNAs were obtained using QuantiTect Reverse Transcription kits, and real-time PCRs were performed with QuantiTect SYBR Green PCR kits (all from Qiagen, Hilden, Germany), according to the manufacturer instructions. The primers used for the real-time PCRs and their annealing temperatures are listed in the Additional file 1: Table S1. Human hypoxanthine phosphoribosyltransferase 1 (HPRT1) or murine β2-microglobulin were followed as housekeeping genes. The real-time PCR programme consisted of an initial 15 min at 95 °C, and then 45 cycles as follows: 94 °C for 15 s, annealing temperature of each primer for 30 s, and 72 °C for 30 s. The real-time PCR machine used was a LightCycler 480 Instrument II (Roche, Indianapolis, IN, USA).
For transient interference of Gpr55, RAW264.7 cells were plated at 6 × 10^5 cells/well in six-well plates in growth medium without antibiotics. Twenty-four hours later, the cells were transfected with 250 pmol/well non-targeting small-interfering (si)RNAs (si-NT; siGENOME siRNA Pool #2; D-001206-14; Dharmacon, Chicago, IL, USA) or Gpr55-specific siRNAs (si-GPR55; siGENOME mouse GPR55 SMART pool; M-043590-01; Dharmacon) using Lipofectamine LTX and Plus Reagent, according to the manufacturer instructions. Twenty-four hours later, the cells were plated for the different assays or for RNA extraction. The efficiency of interference was monitored by real-time PCR after 72 h of interference, using the primers listed in the Additional file 1: Table S1. β2-microglobulin was followed as a housekeeping gene.
For the osteoclastogenesis in-vitro assay, RAW264.7 cells were plated in differentiation medium (α-MEM with 10% heat-inactivated FBS, 2 mM L-glutamine, 100 U/mL penicillin, and 100 ug/mL streptomycin) at a density of 5 × 10^3 cells/well in 24-well plates on coverslips for morphological analysis, or at 2 × 10^4 cells/well in six-well plates for RNA extraction. Twenty-four hours later and every 48 h, the medium was replaced and the cells were treated with 15–30 ng/mL RANKL with DMSO and/or PBS as carriers, or with GPR55 antagonists/ agonists (0.5 µM ML-191, 30 µM O1918, 0.5 µM CBD, 0.5 μM CID16020046 1 µM soybean LPI, 1 μM ML-184), or with the peptides (150 nM peptide-P1; or the irrelevant peptide, Irr_P). Twenty-four hours after the last addition, the cells were fixed with 4% paraformaldehyde for morphological analyses or harvested for RNA extraction (see above).

[1] = tested on: osteoclasts derived from RAW264.7 cells; experiment: Osteoclast functional assay (bone resorption on bovine cortical bone slices); type: cell-based, murine; settings: 0.5 µM CID16020046, 15 ng/mL RANKL, 7 days
Experimental: RAW264.7 cells were plated in differentiation medium at a density of 1250 cells/100 µL on 0.2-mm-thick bovine cortical bone slices (BoneSlices.com, Jelling, Denmark) in 96-well plates. Six hours later, 100 µL differentiation medium with RANKL (15 ng/mL, final concentration) was added, in the presence of a carrier or in combination with the GPR55 modulators. The media with the different compounds were replaced every 48 h, for a total of 7 days. At the end of this period, the cells were detached with a 10% bleach solution, and the resorption excavations were visualised by using Toluidine Blue staining (Sigma-Aldrich). Images of the resorption areas were obtained under the microscope (SW380T; Swift Optical Instruments, Inc., TX, USA) using the 10 × objective, and acquired with a digital camera (Swiftcam SC1003; Swift Optical Instruments, Inc.). The total eroded surface underwent blinded quantification using ImageJ (NIH), and was subdivided into pit and trench surfaces. Pits were characterised as round excavations with well-defined edges where the ratio between length and width was < 2.0. Trenches were defined as elongated excavations with well-defined edges whose length was at least twice the wide, and with clear signs of continued resorption. The prevalence of trenches was calculated as a proportion (%) of the trench surface relative to the total eroded surface.

GPR55 = settings: ref [55]; cited from earlier work
Experimental: GPR55 involvement in osteoclast functions was directly assessed using in-vitro assays of bone resorbing activity. As the transient silencing by GPR55-specific siRNAs in precursor cells was not applicable to this long-term differentiation assay, pharmacological perturbation of GPR55 was carried out with only the most specific antagonists (ML-191, CID16020046) and LPI. RAW264.7 cells were plated on cortical bone slices and RANKL-differentiated for 7 days in the absence or presence of the different GPR55 regulators. At the end of the differentiation, the cells were detached and the resorbing area ...

Compound: Cc1ccc(-c2n[nH]c3c2C(c2cccc(O)c2)N(c2ccc(C(=O)O)cc2)C3=O)cc1 (centres unmarked) [CID16020046]
- reduction of LPI-stimulated Ctr transcription (RAW264.7 cells; 0.5 µM CID16020046): 50%
- block of LPI-stimulated Nfatc1 transcription (RAW264.7 cells; 0.5 µM ML-191 or 0.5 µM CID16020046): completely blocked
- inhibition of RANKL-promoted osteoclast degrading activity [1]: only slightly inhibited
- reduction of relative trench contribution compared to RANKL ([1]; p < 0.05): about 30%
- mode of action on GPR55 (GPR55): GPR55 inverse agonist
